Target: human plasma kallikrein (Homo sapiens (Human), UniProt P03952)
Experiment: Plasma kallikrein activity assay (chromogenic substrate S2302)
Assay type: biochemical
Details: 2 nM kallikrein, 80 μM S2302, 30° C., pH 7.8; Ki by Cheng-Prusoff equation; values given as ranges; read-out: Ki
Procedure: Plasma Kallikrein Activity Assay.
The effect of compounds of the invention on human plasma kallikrein activity was determined using the chromogenic substrates (DiaPharma Group, Inc., West Chester, Ohio, USA). In these experiments, 2 nM kallikrein (Enzyme Research Laboratories, South Bend, Ind., USA) was incubated with 80 μM S2302 (H-D-Pro-Phe-Arg-p-nitroaniline) in the absence or presence of increasing concentrations of compounds of the invention in a final volume of 200 μL Tris-HCl buffer (200 mM NaCl; mM CaCl2; 50 mM Tris-HCl, pH 7.8).
Data were analyzed using SigmaPlot software (Systat Software, Inc., San Jose, Calif., USA) (Four Parameter Logistic Curve).

human plasma kallikrein, sequence (P03952 whole entry, looked up): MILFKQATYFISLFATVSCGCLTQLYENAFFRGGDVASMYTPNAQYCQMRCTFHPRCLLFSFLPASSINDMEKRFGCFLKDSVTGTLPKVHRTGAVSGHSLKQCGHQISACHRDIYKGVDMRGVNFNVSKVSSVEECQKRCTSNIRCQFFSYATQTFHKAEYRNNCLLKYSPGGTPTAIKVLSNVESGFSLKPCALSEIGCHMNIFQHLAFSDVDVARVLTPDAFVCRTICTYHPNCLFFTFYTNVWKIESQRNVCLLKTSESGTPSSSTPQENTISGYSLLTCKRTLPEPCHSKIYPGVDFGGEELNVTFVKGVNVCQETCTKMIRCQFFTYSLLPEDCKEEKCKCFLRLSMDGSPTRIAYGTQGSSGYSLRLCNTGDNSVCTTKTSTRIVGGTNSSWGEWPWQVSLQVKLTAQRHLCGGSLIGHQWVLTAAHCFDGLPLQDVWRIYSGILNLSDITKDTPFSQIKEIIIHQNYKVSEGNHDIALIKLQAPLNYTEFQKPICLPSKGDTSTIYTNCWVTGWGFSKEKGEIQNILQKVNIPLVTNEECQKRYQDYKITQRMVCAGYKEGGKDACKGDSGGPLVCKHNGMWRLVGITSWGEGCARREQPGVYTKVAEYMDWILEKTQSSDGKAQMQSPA
human plasma kallikrein, sequence (P03952 whole entry partner, looked up): as the sequence (P03952 whole entry, looked up) above

SMILES	Ki
N=C(N)c1cccc(-n2nc(C(F)(F)F)cc2C(=O)Nc2cc(C(N)(CCC3CC3)c3cccnc3)ccc2F)c1 (single isomer, unassigned; (+)) [238d, (+)-N-(5-(1-amino-3-cyclopropyl-1-(pyridin-3-yl)propyl)-2-fluorophenyl)-1-(3-carbamimidoylphenyl)-3-(trifluoromethyl)-1H-pyrazole-5-carboxamide]	0.1 to 50 nM
NCc1cccc(-n2nc(C(F)(F)F)cc2C(=O)Nc2cc(C(N)(CCC3CC3)c3cccc(C(N)=O)c3)ccc2F)c1 (single isomer, unassigned; (-)) [225a, (−)-N-(5-(1-amino-1-(3-carbamoylphenyl)-3-cyclopropylpropyl)-2-fluorophenyl)-1-(3-(aminomethyl)phenyl)-3-(trifluoromethyl)-1H-pyrazole-5-carboxamide]	0.1 to 50 nM
NCc1cccc(-n2nc(C(F)(F)F)cc2C(=O)Nc2cccc(C(OCC3CC3)c3ccccn3)c2)c1 (racemic) [43f, 1-(3-(aminomethyl)phenyl)-N-(3-((cyclopropylmethoxy)(pyridin-2-yl)methyl)-phenyl)-3-(trifluoromethyl)-1H-pyrazole-5-carboxamide]	0.1 to 50 nM
CC(C)CC(=O)NC(CCC1CC1)(c1cccnc1)c1ccc(F)c(NC(=O)c2cc(C(F)(F)F)nn2-c2cccc(CN)c2)c1 (single isomer, unassigned; (-)) [244k, (−)-1-(3-(aminomethyl)phenyl)-N-(5-(3-cyclopropyl-1-(3-methylbutanamido)-1-(pyridin-3-yl)propyl)-2-fluorophenyl)-3-(trifluoromethyl)-1H-pyrazole-5-carboxamide]	0.1 to 50 nM
NCc1cccc(-n2nc(C(F)(F)F)cc2C(=O)Nc2cccc(C(OCC3CC3)c3ccccn3)c2)c1 (single isomer, unassigned; (-)) [43g, (−)-1-(3-(aminomethyl)phenyl)-N-(3-((cyclopropylmethoxy)(pyridin-2-yl)methyl)-phenyl)-3-(trifluoromethyl)-1H-pyrazole-5-carboxamide]	0.1 to 50 nM
CS(=O)(=O)c1cccc(C(NCC2CC2)c2cccc(NC(=O)c3cc(C(F)(F)F)nn3-c3cccc(CN)c3)c2)c1 (stereo not drawn) [114f, 1-(3-(aminomethyl)phenyl)-N-(3-((cyclopropylmethylamino)(3-(methylsulfonyl)phenyl)methyl)phenyl)-3-(trifluoromethyl)-1H-pyrazole-5-carboxamide]	0.1 to 50 nM
CS(=O)(=O)NC(CCC1CC1)(c1ccncc1)c1ccc(F)c(NC(=O)c2cc(C(F)(F)F)nn2-c2ccc3ccnc(N)c3c2)c1 (single isomer, unassigned; (-)) [262f, (−)-1-(1-aminoisoquinolin-7-yl)-N-(5-(3-cyclopropyl-1-(methylsulfonamido)-1-(pyridin-4-yl)propyl)-2-fluorophenyl)-3-(trifluoromethyl)-1H-pyrazole-5-carboxamide]	0.1 to 50 nM
NCc1cccc(-n2nc(C(F)(F)F)cc2C(=O)Nc2cccc(C(NCC3CC3)c3cc(F)ccc3F)c2)c1 (stereo not drawn) [197f, 1-(3-(aminomethyl)phenyl)-N-(3-(((cyclopropylmethyl)amino)(2,5-difluorophenyl)methyl)phenyl)-3-(trifluoromethyl)-1H-pyrazole-5-carboxamide]	0.1 to 50 nM
NCc1cccc(-n2nc(C(F)(F)F)cc2C(=O)Nc2cccc(C(O)(CNC3CC3)c3ccccc3)c2)c1 (stereo not drawn) [99g, 1-(3-(aminomethyl)phenyl)-N-(3-(2-(cyclopropylamino)-1-hydroxy-1-phenylethyl)phenyl)-3-(trifluoromethyl)-1H-pyrazole-5-carboxamide]	0.1 to 50 nM
NCc1cccc(-n2nc(C(F)(F)F)cc2C(=O)Nc2cccc(C(NCC3CC3)c3ccc(-c4ccccc4)cc3)c2)c1 (stereo not drawn) [133g, 1-(3-(aminomethyl)phenyl)-N-(3-(biphenyl-4-yl(cyclopropylmethylamino)methyl)phenyl)-3-(trifluoromethyl)-1H-pyrazole-5-carboxamide]	0.1 to 50 nM
CCCOc1ccc(C(NCC2CC2)c2cccc(NC(=O)c3cc(C(F)(F)F)nn3-c3cccc(CN)c3)c2)cc1 (stereo not drawn) [127f, 1-(3-(Aminomethyl)phenyl)-N-(3-((cyclopropylmethylamino)(4-propoxyphenyl)methyl)phenyl)-3-(trifluoromethyl)-1H-pyrazole-5-carboxamide]	0.1 to 50 nM
NCc1cccc(-n2nc(C(F)(F)F)cc2C(=O)Nc2cccc(C(NCC3CC3)c3ccccc3OCc3ccccc3)c2)c1 (stereo not drawn) [106a, 1-(3-(aminomethyl)phenyl)-N-(3-((2-(benzyloxy)phenyl)(cyclopropylmethylamino)methyl)phenyl)-3-(trifluoromethyl)-1H-pyrazole-5-carboxamide]	0.1 to 50 nM
NCc1cccc(-n2nc(C(F)(F)F)cc2C(=O)Nc2cccc(C(NCC3CC3)c3ccc(Cl)cc3Cl)c2)c1 (stereo not drawn) [200f, 1-(3-(aminomethyl)phenyl)-N-(3-((2,4-dichlorophenyl)((cyclopropylmethyl)amino)methyl)phenyl)-3-(trifluoromethyl)-1H-pyrazole-5-carboxamide]	0.1 to 50 nM
N#Cc1ccc(C(N)(CCC2CC2)c2cccc(NC(=O)c3cc(C(F)(F)F)nn3-c3cccc(CN)c3)c2)cc1 (single isomer, unassigned; (+)) [218c, (+)-N-(3-(1-amino-1-(4-cyanophenyl)-3-cyclopropylpropyl)phenyl)-1-(3-(aminomethyl)phenyl)-3-(trifluoromethyl)-1H-pyrazole-5-carboxamide]	0.1 to 50 nM
Cc1cccc(C(NCC2CC2)c2ccc(F)c(NC(=O)c3cc(C(F)(F)F)nn3-c3cccc(CN)c3)c2)c1 (stereo not drawn) [140e, 1-(3-(aminomethyl)phenyl)-N-(5-(((cyclopropylmethyl)amino)(m-tolyl)methyl)-2-fluorophenyl)-3-(trifluoromethyl)-1H-pyrazole-5-carboxamide]	0.1 to 50 nM
Cc1ccc(C)c(C(NCC2CC2)c2cccc(NC(=O)c3cc(C(F)(F)F)nn3-c3cccc(CN)c3)c2)c1 (stereo not drawn) [202f, 1-(3-(aminomethyl)phenyl)-N-(3-(((cyclopropylmethyl)amino)(2,5-dimethylphenyl)methyl)phenyl)-3-(trifluoromethyl)-1H-pyrazole-5-carboxamide]	0.1 to 50 nM
NCc1cccc(-n2nc(C(F)(F)F)cc2C(=O)Nc2cccc(C(O)(CCC3CC3)c3cccnc3)c2)c1 (single isomer, unassigned; (-)) [47g, (−)-1-(3-(aminomethyl)phenyl)-N-(3-(3-cyclopropyl-1-hydroxy-1-(pyridin-3-yl)propyl)phenyl)-3-(trifluoromethyl)-1H-pyrazole-5-carboxamide]	0.1 to 50 nM
Nc1nccc2ccc(-n3nc(C(F)(F)F)cc3C(=O)Nc3cc(C(N)(CCC4CC4)c4ccncc4)ccc3F)cc12 (single isomer, unassigned; (+)) [253e, (+)-N-(5-(1-amino-3-cyclopropyl-1-(pyridin-4-yl)propyl)-2-fluorophenyl)-1-(1-aminoisoquinolin-7-yl)-3-(trifluoromethyl)-1H-pyrazole-5-carboxamide]	0.1 to 50 nM
NCc1cccc(-n2nc(C(F)(F)F)cc2C(=O)Nc2cccc(C(NC(=O)C3CC3)c3ccccc3)c2)c1 (stereo not drawn) [115e, 1-(3-(aminomethyl)phenyl)-N-(3-(cyclopropanecarboxamido(phenyl)methyl)phenyl)-3-(trifluoromethyl)-1H-pyrazole-5-carboxamide]	50 to 100 nM
NCc1cccc(-n2nc(C(F)(F)F)cc2C(=O)Nc2cc(C(N)(CCC3CC3)c3ccc(C(N)=O)nc3)ccc2F)c1 (single isomer, unassigned; (+)) [221i, (+)-5-(1-amino-1-(3-(1-(3-(aminomethyl)phenyl)-3-(trifluoromethyl)-1H-pyrazole-5-carboxamido)-4-fluorophenyl)-3-cyclopropylpropyl)picolinamide]	0.1 to 50 nM
NCc1cccc(-n2nc(C(F)(F)F)cc2C(=O)Nc2cc(C(=CCC3CC3)c3ccccc3)ccc2F)c1 [252c, 1-(3-(aminomethyl)phenyl)-N-(5-(3-cyclopropyl-1-phenylprop-1-enyl)-2-fluorophenyl)-3-(trifluoromethyl)-1H-pyrazole-5-carboxamide]	0.1 to 50 nM
NCc1cccc(-n2nc(C(F)(F)F)cc2C(=O)Nc2cccc(C(NCC3CC3)c3ccccc3)c2F)c1 (stereo not drawn) [88b, 1-(3-(aminomethyl)phenyl)-N-(3-((cyclopropylmethylamino)(phenyl)methyl)-2-fluorophenyl)-3-(trifluoromethyl)-1H-pyrazole-5-carboxamide]	0.1 to 50 nM
NCc1cccc(-n2nc(C(F)(F)F)cc2C(=O)Nc2cccc(N(CCC3CC3)c3ccccc3)c2)c1 [87f, 1-(3-(aminomethyl)phenyl)-N-(3-((2-cyclopropylethyl)(phenyl)amino)phenyl)-3-(trifluoromethyl)-1H-pyrazole-5-carboxamide]	0.1 to 50 nM
N#Cc1cccc(C(NCC2CC2)c2cccc(NC(=O)c3cc(C(F)(F)F)nn3-c3cccc(CN)c3)c2)c1 (stereo not drawn) [152d, 1-(3-(aminomethyl)phenyl)-N-(3-((3-cyanophenyl)(cyclopropylmethylamino)methyl)phenyl)-3-(trifluoromethyl)-1H-pyrazole-5-carboxamide]	0.1 to 50 nM
NCc1cccc(-n2nc(C(F)(F)F)cc2C(=O)Nc2cccc(C(OCC3CC3)c3nccs3)c2)c1 (stereo not drawn) [82f, 1-(3-(aminomethyl)phenyl)-N-(3-((cyclopropylmethoxy)(thiazol-2-yl)methyl)phenyl)-3-(trifluoromethyl)-1H-pyrazole-5-carboxamide]	0.1 to 50 nM
Nc1nccc2ccc(-n3nc(C(F)(F)F)cc3C(=O)Nc3cc(C(CCC4CC4)n4ccccc4=O)ccc3F)cc12 (stereo not drawn) [258g, 1-(1-aminoisoquinolin-7-yl)-N-(5-(3-cyclopropyl-1-(2-oxopyridin-1(2H)-yl)propyl)-2-fluorophenyl)-3-(trifluoromethyl)-1H-pyrazole-5-carboxamide]	0.1 to 50 nM

Same assay, conditions: Ki, 2 nM kallikrein, 80 μM S2302, 30° C., pH 7.8; Ki by Cheng-Prusoff equation; values given as ranges

SMILES	Ki
NCc1cccc(-n2nc(C(F)(F)F)cc2C(=O)Nc2cccc(C(NCC3CC3)c3cc4ccccc4c4ccccc34)c2)c1 (stereo not drawn) [125g, 1-(3-(Aminomethyl)phenyl)-N-(3-((cyclopropylmethylamino)(phenanthren-9-yl)methyl)phenyl)-3-(trifluoromethyl)-1H-pyrazole-5-carboxamide]	0.1 to 50 nM
